Results from publication PMC9120017, “Inhibition mechanism of the chloride channel TMEM16A by the pore blocker 1PBC” (Nature Communications, 2022).
Like-named read-outs stand apart in the source and are kept apart here.

Target: T1, mouse TMEM16A mutant Q637A (Mus musculus, UniProt Q8BHY3, Q637A)
T1 construct: expressed in transfected cells; host or cells: HEK293T
T1 sequence (Q8BHY3 1-960 Q637A): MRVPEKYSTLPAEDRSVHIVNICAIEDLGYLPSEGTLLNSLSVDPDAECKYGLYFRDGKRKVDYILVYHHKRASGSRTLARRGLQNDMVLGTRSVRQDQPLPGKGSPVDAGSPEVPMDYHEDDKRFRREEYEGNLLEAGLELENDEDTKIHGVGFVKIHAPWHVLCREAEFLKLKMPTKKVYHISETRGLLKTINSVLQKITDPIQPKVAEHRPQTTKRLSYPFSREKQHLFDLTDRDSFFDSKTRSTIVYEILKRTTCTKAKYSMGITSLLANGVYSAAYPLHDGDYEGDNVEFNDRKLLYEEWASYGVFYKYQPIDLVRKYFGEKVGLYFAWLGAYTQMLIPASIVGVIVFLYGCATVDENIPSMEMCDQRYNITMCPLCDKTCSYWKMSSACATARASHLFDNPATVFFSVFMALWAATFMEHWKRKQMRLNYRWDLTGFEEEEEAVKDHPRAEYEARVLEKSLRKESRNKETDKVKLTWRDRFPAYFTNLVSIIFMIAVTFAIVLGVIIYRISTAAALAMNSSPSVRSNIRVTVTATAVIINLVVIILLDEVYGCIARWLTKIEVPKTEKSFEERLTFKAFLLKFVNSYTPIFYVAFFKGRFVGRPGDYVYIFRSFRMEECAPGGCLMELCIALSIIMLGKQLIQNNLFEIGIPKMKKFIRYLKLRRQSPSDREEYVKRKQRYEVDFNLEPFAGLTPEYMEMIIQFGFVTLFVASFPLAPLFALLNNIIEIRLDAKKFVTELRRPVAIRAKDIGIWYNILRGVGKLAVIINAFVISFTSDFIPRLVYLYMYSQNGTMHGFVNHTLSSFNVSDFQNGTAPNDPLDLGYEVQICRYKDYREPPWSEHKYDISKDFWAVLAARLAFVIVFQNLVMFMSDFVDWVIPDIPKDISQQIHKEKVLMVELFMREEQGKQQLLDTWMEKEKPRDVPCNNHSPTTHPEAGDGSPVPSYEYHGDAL
Test: Inside-out patch recording of 1PBC block, mutant Q637A
Type: cell-based
Settings: for remaining activity at 1 µM: 1PBC conc 1; for remaining activity at 1 µM / remaining activity at 3 µM / remaining activity at 10 µM / remaining activity at 30 µM: read-out: relative current in 1PBC (avr); for remaining activity at 3 µM: 1PBC conc 3; for remaining activity at 10 µM: 1PBC conc 10; for remaining activity at 30 µM: 1PBC conc 30
Protocol: HEK293T cells (ATCC CRL-1573) were maintained in Dulbecco’s modified Eagle’s medium (DMEM; Sigma-Aldrich) supplemented with 10 U ml^−1 penicillin, 0.1 mg ml^−1 streptomycin (Sigma-Aldrich), 2 mM L-glutamine (Sigma-Aldrich), and 10% FBS (Sigma-Aldrich) in a humidified atmosphere containing 5% CO2 at 37 °C. HEK293S GnTI^− cells (ATCC CRL-3022) were maintained in HyClone HyCell TransFx-H medium (GE Healthcare) supplemented with 10 U ml^−1 penicillin, 0.1 mg ml^−1 streptomycin, 4 mM L-glutamine, 0.15% poloxamer 188 (Sigma-Aldrich), and 1% FBS in an atmosphere containing 5% CO2 at 185 rpm at 37 °C. The ac splice variant of mouse TMEM16A (UniProt ID: Q8BHY3), mouse TMEM16B (UniProt ID: Q8CFW1), or mouse TMEM16F (UniProt ID: Q6P9J9) bearing a 3C cleavage site, a Venus YFP, a Myc tag, and a Streptavidin-binding peptide (SBP) downstream of the open reading frame in a modified pcDNA3.1 vector (Invitrogen) were used as described previously[21],[31]. Mutations were introduced using a modified QuikChange method[58] and were verified by sequencing.
HEK293T cells were transfected with 3–4 μg DNA per 6 cm Petri dish using the calcium phosphate co-precipitation method and were used within 24–96 h after transfection. Recordings were performed on inside-out patches excised from HEK293T cells expressing the construct of interest. Patch pipettes were pulled from borosilicate glass capillaries (O.D. 1.5 mm, I.D. 0.86 mm, Sutter Instrument) and were fire-polished with a microforge (Narishige) before use. Pipette resistance was typically 3–8 MΩ when filled with the recording solutions detailed below. Seal resistance was typically 4 GΩ or higher. Voltage-clamp recordings were made using Axopatch 200B, Digidata 1550, and Clampex 10.7 (Molecular Devices). Analog signals were filtered with the in-built 4-pole Bessel filter at 10 kHz and were digitized at 20 kHz. Solution exchange was achieved using a gravity-fed system through a theta glass pipette mounted on an ultra-fast piezo-driven stepper (Siskiyou). […] All recordings were performed at 20 °C.
A symmetrical ionic condition was used throughout. Stock solution with Ca^2+-EGTA contained 150 mM NaCl, 5.99 mM Ca(OH)2, 5 mM EGTA, and 10 mM HEPES at pH 7.40. Stock solution with EGTA contained 150 mM NaCl, 5 mM EGTA, and 10 mM HEPES at pH 7.40. Free Ca^2+ concentrations were adjusted by mixing the stock solutions at the required ratios calculated using the WEBMAXC program (http://web.stanford.edu/~cpatton/webmaxcS.htm). Patch pipettes were filled with the stock solution with Ca^2+-EGTA, which has a free Ca^2+ concentration of 1 mM. 1PBC (ChemBridge) stock was reconstituted in anhydrous DMSO (Sigma-Aldrich) at 100 mM and stored at −20 °C. Working solutions with 1PBC were prepared by serial dilution. Unless otherwise stated, experiments were performed at a saturating Ca^2+ concentration as shown in Supplementary Table 1 and the primary data were corrected for current rundown as described previously[21],[25].
Concentration-response relations, obtained from the ratio of the I-V plots before and after the application of the blocker, were fitted to the Hill equation,1 I/Imax=1/1+IC50/[blocker]^h where I/Imax is the normalized current responses, IC50 defines the concentration at which inhibition is at its half-maximum, and h is the Hill coefficient.

- IC50 (0 mV, 2 µM Ca2+): 1820 nM
- remaining activity at 1 µM (0 mV): 65.8%
- remaining activity at 3 µM (0 mV): 36.3%
- remaining activity at 10 µM (0 mV): 15.5%
- remaining activity at 30 µM (0 mV): 6.35%
- IC50 (20 mV, 2 µM Ca2+): 1400 nM
- remaining activity at 1 µM (20 mV): 59.7%
- remaining activity at 3 µM (20 mV): 30.3%
- remaining activity at 10 µM (20 mV): 12.3%
- remaining activity at 30 µM (20 mV): 4.62%
- IC50 (40 mV, 2 µM Ca2+): 1150 nM
- remaining activity at 1 µM (40 mV): 54.8%
- remaining activity at 3 µM (40 mV): 26.2%
- remaining activity at 10 µM (40 mV): 10.3%
- remaining activity at 30 µM (40 mV): 3.87%
- IC50 (60 mV, 2 µM Ca2+): 956 nM
- remaining activity at 1 µM (60 mV): 49.7%
- remaining activity at 3 µM (60 mV): 22.8%
- remaining activity at 10 µM (60 mV): 9%
- remaining activity at 30 µM (60 mV): 3.77%
- log-fold IC50 (change of mutant vs WT) (80 mV): -0.3333
- IC50 (80 mV, 2 µM Ca2+): 880 nM
- remaining activity at 1 µM (80 mV): 47.5%
- remaining activity at 3 µM (80 mV): 21%
- remaining activity at 10 µM (80 mV): 9.17%
- remaining activity at 30 µM (80 mV): 3.99%
- IC50 (100 mV, 2 µM Ca2+): 898 nM
- remaining activity at 1 µM (100 mV): 48.7%
- remaining activity at 3 µM (100 mV): 20.5%
- remaining activity at 10 µM (100 mV): 9.32%
- remaining activity at 30 µM (100 mV): 4.29%
- IC50 (120 mV, 2 µM Ca2+): 985 nM
- remaining activity at 1 µM (120 mV): 50.9%
- remaining activity at 3 µM (120 mV): 22%
- remaining activity at 10 µM (120 mV): 10.5%
- remaining activity at 30 µM (120 mV): 5.23%
- IC50 (140 mV, 2 µM Ca2+): 1170 nM
- remaining activity at 1 µM (140 mV): 55.6%
- remaining activity at 3 µM (140 mV): 24.7%
- remaining activity at 10 µM (140 mV): 12.4%
- remaining activity at 30 µM (140 mV): 6.82%
- IC50 (-20 mV, 2 µM Ca2+): 2340 nM
- remaining activity at 1 µM (-20 mV): 71.8%
- remaining activity at 3 µM (-20 mV): 42.4%
- remaining activity at 10 µM (-20 mV): 18.6%
- remaining activity at 30 µM (-20 mV): 8.09%
- IC50 (-40 mV, 2 µM Ca2+): 3080 nM
- remaining activity at 1 µM (-40 mV): 76.6%
- remaining activity at 3 µM (-40 mV): 49.5%
- remaining activity at 10 µM (-40 mV): 23.3%
- remaining activity at 30 µM (-40 mV): 10.7%
- IC50 (-60 mV, 2 µM Ca2+): 4040 nM
- remaining activity at 1 µM (-60 mV): 81.3%
- remaining activity at 3 µM (-60 mV): 56.4%
- remaining activity at 10 µM (-60 mV): 28.3%
- remaining activity at 30 µM (-60 mV): 13.4%
- IC50 (-80 mV, 2 µM Ca2+): 5190 nM
- remaining activity at 1 µM (-80 mV): 84.8%
- remaining activity at 3 µM (-80 mV): 62.7%
- remaining activity at 10 µM (-80 mV): 33.3%
- remaining activity at 30 µM (-80 mV): 16.6%
- IC50 (-100 mV, 2 µM Ca2+): 6660 nM
- remaining activity at 1 µM (-100 mV): 87.3%
- remaining activity at 3 µM (-100 mV): 68.5%
- remaining activity at 10 µM (-100 mV): 38.7%
- remaining activity at 30 µM (-100 mV): 20.5%
- IC50 (-120 mV, 2 µM Ca2+): 8290 nM
- remaining activity at 1 µM (-120 mV): 88.8%
- remaining activity at 3 µM (-120 mV): 72.5%
- remaining activity at 10 µM (-120 mV): 44.2%
- remaining activity at 30 µM (-120 mV): 24.7%
- IC50 (-140 mV, 2 µM Ca2+): 10200 nM
- remaining activity at 1 µM (-140 mV): 89.3%
- remaining activity at 3 µM (-140 mV): 76.3%
- remaining activity at 10 µM (-140 mV): 49.3%
- remaining activity at 30 µM (-140 mV): 28.8%
- IC50 (Q637A, V 0 mV): 1820 nM
- IC50 (Q637A, V 20 mV): 1400 nM
- IC50 (Q637A, V 40 mV): 1150 nM
- IC50 (Q637A, V 60 mV): 956 nM
- IC50 (Q637A, V 80 mV): 880 nM
- IC50 (Q637A, V 100 mV): 898 nM
- IC50 (Q637A, V 120 mV): 985 nM
- IC50 (Q637A, V 140 mV): 1170 nM
- IC50 (Q637A, V -20 mV): 2340 nM
- IC50 (Q637A, V -40 mV): 3080 nM
- IC50 (Q637A, V -60 mV): 4040 nM
- IC50 (Q637A, V -80 mV): 5190 nM
- IC50 (Q637A, V -100 mV): 6660 nM
- IC50 (Q637A, V -120 mV): 8290 nM
- IC50 (Q637A, V -140 mV): 10200 nM
SMILES: N#Cc1c(C(F)(F)F)cc(O)n2c1nc1ccccc12 [1PBC]
